Values quoted from earlier work, collected in PubChem BioAssay AID1259409 (Chemical Carcinogenesis Research Information System (CCRIS), 2018).

System: rodent chemically induced tumor inhibition, incidence and multiplicity
Test: CCRIS tumor inhibitor studies

## CC1=C(/C=C/C(C)=C/C=C/C(C)=C/C(=O)O)C(C)(C)CCC1
Carcinogen: 7,12-DIMETHYLBENZ[A]ANTHRACENE, 57-97-6, Dose [Inhibitor]: 68 NMOL IN 0.2 ML ACETONE ONCE 1 HR BEFORE APPLICATION OF CARCINOGEN (STUDY DURATION: 21 WK), Route [Inhibitor]: DERMAL, Species: MOUSE, Strain/Sex: CD-1/FEMALE, Target Tissue: Type of Lesion: SKIN: PAPILLOMA, Dose [Carcinogen]: 0.2 UMOL IN 0.2 ML ACETONE ONCE, Promoter: 12-O-TETRADECANOYLPHORBOL-13-ACETATE, 16561-29-8
  tumour outcome (control, treated, inhibition, significance): 95%, 92%, 3%, not significant
Carcinogen: 7,12-DIMETHYLBENZ[A]ANTHRACENE, 57-97-6, Dose [Inhibitor]: 170 NMOL IN 0.2 ML ACETONE 1 HR PRIOR TO EACH PROMOTER DOSE FOR 12 WK (STUDY DURATION: 14 WK), Route [Inhibitor]: DERMAL, Species: MOUSE, Strain/Sex: SENCAR/FEMALE, Target Tissue: Type of Lesion: SKIN: PAPILLOMA, Dose [Carcinogen]: 200 NMOL IN 0.2 ML ACETONE ONCE, Promoter: 12-O-TETRADECANOYLPHORBOL-13-ACETATE, 16561-29-8
  tumour outcome (control, treated, inhibition, significance): 100%, 87%, 13%, not calculated
Carcinogen: 7,12-DIMETHYLBENZ[A]ANTHRACENE, 57-97-6, Dose [Inhibitor]: 170 NMOL IN 0.2 ML ACETONE 1 HR PRIOR TO EACH PROMOTER DOSE FOR 20 WK (STUDY DURATION: 22 WK), Route [Inhibitor]: DERMAL, Species: MOUSE, Strain/Sex: CD-1/FEMALE, Target Tissue: Type of Lesion: SKIN: PAPILLOMA, Dose [Carcinogen]: 200 NMOL IN 0.2 ML ACETONE ONCE, Promoter: 12-O-TETRADECANOYLPHORBOL-13-ACETATE, 16561-29-8
  tumour outcome (control, treated, inhibition, significance): 94%, 63%, 33%, not calculated
Carcinogen: DIETHYLNITROSAMINE, 55-18-5, Dose [Inhibitor]: 0, 10000 IU/KG IN CORN OIL FOR DURATION OF STUDY BEGINNING 7 D PRIOR TO FIRST CARCINOGEN DOSE (STUDY DURATION: 6 MO), Route [Inhibitor]: GAVAGE, Species: RAT, Strain/Sex: BD6/FEMALE, Target Tissue: Type of Lesion: ESOPHAGUS: TUMOR, Dose [Carcinogen]: 80 MG/KG BW 1/WK FOR 8 WK, Promoter: NONE USED
  tumour outcome (control, treated, inhibition, significance): 20%, 13%, 35%, not significant
Carcinogen: DIETHYLNITROSAMINE, 55-18-5, Dose [Inhibitor]: 0, 10000 IU/KG IN CORN OIL FOR DURATION OF STUDY BEGINNING 7 D PRIOR TO FIRST CARCINOGEN DOSE (STUDY DURATION: 6 MO), Route [Inhibitor]: GAVAGE, Species: RAT, Strain/Sex: BD6/FEMALE, Target Tissue: Type of Lesion: LIVER: TUMOR, Dose [Carcinogen]: 80 MG/KG BW 1/WK FOR 8 WK, Promoter: NONE USED
  tumour outcome (control, treated, inhibition, significance): 83%, 91%, -10%, not significant
Carcinogen: DIETHYLNITROSAMINE, 55-18-5, Dose [Inhibitor]: 0, 20000 IU/KG IN CORN OIL FOR DURATION OF STUDY BEGINNING 7 D PRIOR TO FIRST CARCINOGEN DOSE (STUDY DURATION: 6 MO), Route [Inhibitor]: GAVAGE, Species: RAT, Strain/Sex: BD6/FEMALE, Target Tissue: Type of Lesion: ESOPHAGUS: TUMOR, Dose [Carcinogen]: 80 MG/KG BW 1/WK FOR 8 WK, Promoter: NONE USED
  tumour outcome (control, treated, inhibition, significance): 30%, 13%, 57%, not significant
Carcinogen: DIETHYLNITROSAMINE, 55-18-5, Dose [Inhibitor]: 0, 20000 IU/KG IN CORN OIL FOR DURATION OF STUDY BEGINNING 7 D PRIOR TO FIRST CARCINOGEN DOSE (STUDY DURATION: 6 MO), Route [Inhibitor]: GAVAGE, Species: RAT, Strain/Sex: BD6/FEMALE, Target Tissue: Type of Lesion: LIVER: TUMOR, Dose [Carcinogen]: 80 MG/KG BW 1/WK FOR 8 WK, Promoter: NONE USED
  tumour outcome (control, treated, inhibition, significance): 85%, 93%, -9%, not significant
Carcinogen: N-METHYL-N'-NITRO-N-NITROSOGUANIDINE, 70-25-7, Dose [Inhibitor]: 0, 0.75 MG/KG BW 1/2 D FOR 26 WK BEGINNING POST CARCINOGEN TREATMENT (STUDY DURATION: 52 WK), Route [Inhibitor]: SUBCUTANEOUS, Species: RAT, Strain/Sex: WISTAR/MALE, Target Tissue: Type of Lesion: STOMACH: ADENOCARCINOMA, Dose [Carcinogen]: 25 UG/ML IN DRINKING WATER FOR 25 WK, Promoter: SODIUM CHLORIDE, 7647-14-5
  tumour outcome (control, treated, inhibition, significance): 17/20 (85%), 8/20 (40%), 53% p<0.01
Carcinogen: N-METHYL-N'-NITRO-N-NITROSOGUANIDINE, 70-25-7, Dose [Inhibitor]: 0, 1.5 MG/KG BW 1/2 D FOR 26 WK BEGINNING POST CARCINOGEN TREATMENT (STUDY DURATION: 52 WK), Route [Inhibitor]: SUBCUTANEOUS, Species: RAT, Strain/Sex: WISTAR/MALE, Target Tissue: Type of Lesion: STOMACH: ADENOCARCINOMA, Dose [Carcinogen]: 25 UG/ML IN DRINKING WATER FOR 25 WK, Promoter: SODIUM CHLORIDE, 7647-14-5
  tumour outcome (control, treated, inhibition, significance): 17/20 (85%), 7/20 (35%), 59%, p<0.01
Carcinogen: N-NITROSO-N-METHYLUREA, 684-93-5, Dose [Inhibitor]: 0, 60 MG/KG OF DIET FOR 3 MO BEGINNING 1 WK POST CARCINOGEN DOSE (STUDY DURATION: 100 D), Route [Inhibitor]: ORAL, Species: RAT, Strain/Sex: SPRAGUE-DAWLEY/FEMALE, Target Tissue: Type of Lesion: MAMMARY GLAND: TUMOR, Dose [Carcinogen]: 50 MG/KG BW ONCE, Promoter: NONE USED
  tumour outcome (control, treated, inhibition, significance): 100%, 92%, 8%, not significant
Carcinogen: N-NITROSO-N-METHYLUREA, 684-93-5, Dose [Inhibitor]: 0, 120 MG/KG OF DIET FOR 13 MO BEGINNING 1 WK POST CARCINOGEN DOSE (STUDY DURATION: 100 D), Route [Inhibitor]: ORAL, Species: RAT, Strain/Sex: SPRAGUE-DAWLEY/FEMALE, Target Tissue: Type of Lesion: MAMMARY GLAND: TUMOR, Dose [Carcinogen]: 50 MG/KG BW ONCE, Promoter: NONE USED
  tumour outcome (control, treated, inhibition, significance): 100%, 83%, 17%, not significant
